Here are results for 30 compounds from patent publication US5272150A, “Hydroxyalkylfuranyl derivatives” (Janssen Pharmaceutica N.V., priority 1992, dated 1993).

The experiment has as its system compound 48/80-induced lethality in rats. The experiment can be described thus: Protection of rats from compound 48/80-induced lethality. The experiment is classed as in vivo. To be noted: Rattus norvegicus, subcutaneous administration (sc). From the text:
Int. Pharmacodyn. Ther. 251, 39-51 (1981).
The term (sc) signifies subcutaneous administration.
What is called ED50 is the midpoint of the dose-response relation. A lower ED50 goes with greater potency. Take `CCn1nnn(CCN2CCC(Cc3nc4ccccc4n3Cc3ccc(CO)o3)CC2)c1=O` [1.07]: the 50% effect level (ED50) was put at a dose of 0.04 mg/kg.

In turn, `Cc1nc2sccn2c(=O)c1CCN1CCC(Cc2nc3ccccc3n2Cc2ccc(CO)o2)CC1` [1.08] gave an ED50 of 0.01 mg/kg.

`Cc1nc2ccccn2c(=O)c1CCN1CCC(Cc2nc3ccccc3n2Cc2ccc(CO)o2)CC1` [1.09] displayed an ED50 of 0.02 mg/kg.

Compound `Cc1nc2n(c(=O)c1CCN1CCC(Cc3nc4ccccc4n3Cc3ccc(CO)o3)CC1)CCS2` [1.10] returned an ED50 of 0.01 mg/kg.

In turn, `COc1ccc(CCN2CCC(Cc3nc4ccccc4n3Cc3ccc(CO)o3)CC2)cc1` [1.11] had a median effective dose (ED50) of 0.04 mg/kg.

Consider `CC(C)NC(=O)CCN1CCC(Cc2nc3ccccc3n2Cc2ccc(CO)o2)CC1` [1.12], for which the 50% effect level (ED50) was put at a dose of 0.01 mg/kg.

In the case of `Cn1cccc1C(=O)NCCN1CCC(Cc2nc3ccccc3n2Cc2ccc(CO)o2)CC1` [1.15], the ED50 worked out at 0.04 mg/kg.

`OCc1ccc(Cn2c(CC3CCN(CCNc4cnccn4)CC3)nc3ccccc32)o1` [1.22]: it took a dose of 0.04 mg/kg to reach the 50% effect level (ED50).

With `OCc1ccc(Cn2c(CC3CCN(CCNc4ncccn4)CC3)nc3ccccc32)o1` [1.23], the 50% effect level (ED50) was put at a dose of 0.02 mg/kg.

With `Cc1nc2sccn2c(=O)c1CCN1CCC(Nc2nc3cccnc3n2Cc2ccc(CO)o2)CC1` [2.09], the ED50 was 0.01 mg/kg.

In turn, `Cc1nc2ccccn2c(=O)c1CCN1CCC(Nc2nc3cccnc3n2Cc2ccc(CO)o2)CC1` [2.10] registered an ED50 of 0.04 mg/kg.

Compound `Cc1cc2nc(C)c(CCN3CCC(Nc4nc5cccnc5n4Cc4ccc(CO)o4)CC3)c(=O)n2o1` [2.32] yielded an ED50 of 0.02 mg/kg.

In turn, `Cc1nc2n(c(=O)c1CCN1CCC(Cc3nc4cccnc4n3Cc3ccc(CO)o3)CC1)CCCS2` [2.33] gave an ED50 of 0.04 mg/kg.

For the compound `CN1CCC(Nc2nc3ccccc3n2Cc2ccc(CO)o2)CC1` [3.03], the ED50 was 0.02 mg/kg.

As to `CCn1nnn(CCN2CCC(Nc3nc4ccccc4n3Cc3ccc(CO)o3)CC2)c1=O` [3.13], it took a dose of 0.04 mg/kg to reach the 50% effect level (ED50).

On to `Cc1nc2n(c(=O)c1CCN1CCC(Nc3nc4ccccc4n3Cc3ccc(CO)o3)CC1)CCS2` [3.15], for which the ED50 came to 0.04 mg/kg.

The compound `Cc1nc2ccccn2c(=O)c1CCN1CCC(Nc2nc3ccccc3n2Cc2ccc(CO)o2)CC1` [3.17] showed an ED50 of 0.04 mg/kg.

As for `O=c1[nH]c2ccccc2n1CCN1CCC(Nc2nc3ccccc3n2Cc2ccc(CO)o2)CC1` [3.19], the 50% effect level (ED50) was put at a dose of 0.02 mg/kg.

In the case of `Cc1nc2sccn2c(=O)c1CCN1CCC(Nc2nc3cncnc3n2Cc2ccc(CO)o2)CC1` [5.03], the 50% effective dose (ED50) was 0.04 mg/kg.

`CN1CCC(Nc2nc3cncnc3n2Cc2ccc(CO)o2)CC1` [5.04] gave an ED50 of 0.02 mg/kg.

Compound `CN1CCC(Cc2nc3ccccc3n2Cc2ccc(CO)o2)CC1` [Co. No. 1.17, 5-[[2-[(1-methyl-4-piperidinyl)methyl]-1H-benzimidazol-1-yl]methyl]-2-furanmethanol] displayed an ED50 of 0.04 mg/kg.

The compound `O=C(O)C(=O)O.O=C(O)C(=O)O.O=C(O)C(=O)O.OCc1ccc(Cn2c(CC3CCN(CCNc4cccnn4)CC3)nc3ccccc32)o1` [Co. No. 1.24, 5-[[2-[[1-[2-(3-pyridazinylamino)ethyl]-4-piperidinyl]methyl]-1H-benzimidazol-1-yl]methyl]-2-furanmethanol ethanedioate (1:3)] registered an ED50 of 0.02 mg/kg.

With `O=c1ccc(NCCN2CCC(Cc3nc4ccccc4n3Cc3ccc(CO)o3)CC2)n[nH]1` [Co. No. 1.25, 6-[[2-[4-[[1-[[5-(hydroxymethyl)-2-furanyl]methyl]-1H-benzimidazol-2-yl]methyl]-1-piperidinyl]ethyl]amino]-3(2H)-pyridazinone ethanedioate (2:5)], the ED50 turned out to be 0.01 mg/kg.

Take `OCc1ccc(Cn2c(CC3CCN(CCc4ccccn4)CC3)nc3cccnc32)o1` [Co. No. 2.35, 5-[[2-[[1-[2-(2-pyridinyl)ethyl]-4-piperidinyl]methyl]-3H-imidazo[4,5-b]-pyridin-3-yl]methyl]-2-furanmethanol (E)-2-butenedioate(2:3)]: it took a dose of 0.02 mg/kg to reach the 50% effect level (ED50).

With `OCc1ccc(Cn2c(NC3CCNCC3)nc3ccccc32)o1` [Co. No. 3.11, 5-[[2-(4-piperidinylamino)-1H-benzimidazol-1-yl]methyl]-2-furanamethanol], the ED50 stood at 0.04 mg/kg.

Consider `CC(C)NC(=O)CCN1CCC(Nc2nc3ccccc3n2Cc2ccc(CO)o2)CC1` [Co. No. 3.12], for which the ED50 is 0.04 mg/kg.

For the compound `N#CCN1CCC(Nc2nc3ccccc3n2Cc2ccc(CO)o2)CC1` [Co. No. 3.22, 4-[[1-[[5-(hydroxymethyl)-2-furanyl]-methyl]-1H-benzimidazol-2-yl]amino]-1-piperidineacetonitrile], the ED50 stood at 0.04 mg/kg.

`O=[N+]([O-])c1cnccc1NCCN1CCC(Nc2nc3ccccc3n2Cc2ccc(CO)o2)CC1` [Co. No. 3.26, 5-[[2-[[1-[2-[(3-nitro-4-pyridinyl)amino]-ethyl]-4-piperidinyl]amino]-1H-benzimidazol-1-yl]methyl]-2-furanmethanol] had an ED50 of 0.04 mg/kg.

`Cc1nc2n(c(=O)c1CCN1CCC(Nc3nc4ccccc4n3Cc3ccc(CO)o3)CC1)CCCS2` [Co. No. 3.31] returned an ED50 of 0.04 mg/kg.

On to `O=[N+]([O-])c1cnccc1NCCN1CCCC(Nc2nc3ccccc3n2Cc2ccc(CO)o2)CC1` (stereo not drawn) [Co. No. 4.14, 5-[[2-[[hexahydro-1-[2-[(3-nitro-4-pyridinyl)amino]ethyl]-1H-azepin-4-yl]amino]-1H-benzimidazol-1-yl]methyl]-2-furanmethanol hemihydrate], for which the ED50 came to 0.04 mg/kg.
